Source: patent publication US20090253721A1, “Combined treatment with radiation and an epidermal growth factor receptor kinase inhibitor” (priority 2004, published 2009)

Key:
[1] = test system: UM-SCC1 cells; experiment: Radiation clonogenic survival, UM-SCC1; assay type: cell-based, human; settings: erlotinib 0.1 μM for 3 days before irradiation, 3, 6, and 9 Gy (p<0.01)
Method: (§3) Survival following radiation exposure was defined as the ability of the cells to maintain their clonogenic capacity and to form colonies. Briefly, after exposure to radiation, cells were trypsinized, counted and seeded for colony formation in 35-mm dishes at 50-5000 cells/dish. After incubation intervals of 14-21 days, colonies were stained with crystal violet and manually counted. Colonies consisting of 50 cells or more were scored, and 5 replicate dishes containing 10-150 colonies/dish were counted for each treatment. Experiments were performed in duplicate.

[2] = test system: UM-SCC1 cells; experiment: Apoptosis by caspase activity, UM-SCC1; assay type: cell-based, human; settings: erlotinib 1 μM combined with radiation 6 Gy
Method: (§1) Cells were seeded in 100-mm dishes at a density of 6×10^5 cells per plate and upon treatment, were harvested by trypsinization, centrifuged, and the cell pellet re-suspended to a final concentration of 2×10^6 cells/ml. Caspase activity was analyzed by fluorescence spectroscopy according to the manufacturer's protocol (Chemicon International). Briefly, the 300 μL of cells were incubated with 1× Fluorescein labeled pan-caspase inhibitor FAM-VAD-FMK (Ekert, P. G., et al. (1999) Cell Death Differ. 6(11):1081-6) at 37° C. for 1 hr in a humidified atmosphere of 5% CO2. Cells were then washed twice with wash buffer, finally resuspended in 320 μL PBS. A 100 μL aliquot of the cell suspension was transferred to a black 96-well plate in triplicate. Fluorescence was analyzed on a SpectraMax fluorescence plate reader at 550 nm excitation and 600 nm emission wavelengths.

[3] = test system: UM-SCC6 cells; experiment: Apoptosis by caspase activity, UM-SCC6; assay type: cell-based, human; settings: erlotinib 1 μM combined with radiation 6 Gy, p<0.05
Method: as §1

[4] = test system: H226 xenografts; experiment: Tumor growth in athymic nude mice, H226 xenografts
Method: (§4) Erlotinib was administered by oral gavage once daily for 3 weeks. Radiation treatment was delivered twice a week for 3 weeks using custom mouse jigs designed to expose only the tumor bed to radiation.
(§5) Combination studies determining apoptosis induction were evaluated using Student's t test with the resultant P value representing a two-sided test of statistical significance.

[5] = test system: UM-SCC6 and H226 cell lines; experiment: Cell cycle analysis by flow cytometry (propidium iodide); assay type: cell-based, human
Method: Cells were harvested after 72 hours exposure of erlotinib, 24 hours exposure to 6 Gy radiation, or in combination. […] After removal of ethanol by centrifugation, cells were then incubated with phosphate-citric acid buffer [0.2 M Na2HPO4 (pH 7.8), and 4 mM citric acid] at room temperature for 45 min. After centrifugation, cells were then stained with a solution containing 33 μg/ml PI (propidium iodide), 0.13 mg/ml RNase A, 10 mM EDTA, and 0.5% Triton X-100 at 4° C. for 24 hours. Stained nuclei were analyzed for DNA-PI fluorescence using a Becton Dickinson FACScan flow cytometer. Resulting DNA distributions were analyzed by Modfit (Verity Software House, Inc., Topsham, Me.) for the proportion of cells in sub-G0, G1, S, and G2-M phases of the cell cycle.

[6] = test system: PCNA; experiment: Immunohistochemical determination of PCNA in H226 xenografts; assay type: in vivo, athymic mice
[7] = test system: Rad51; experiment: Radiation-induced Rad51 expression, immunoblot; assay type: cell-based, human; settings: pretreated with 1 μM erlotinib for 24 hrs; H226 and UM-SCC6; 6 Gy
Method: (§2) Following treatment, cells were lysed with RIPA buffer and sonicated in complete proteinase inhibitor cocktail (Roche) and sodium orthovanadate. Fifteen μg of protein extracts were mixed with SDS sample buffer and electrophoresed onto a 10% SDS-polyacrylamide gel under reducing conditions. The separated proteins were transferred onto nitrocellulose membranes (Amersham Pharmacia Biotech, Piscataway, N.J.). The membrane was incubated for 1 hour in blocking buffer (Tris-buffered saline with 0.1% Tween (TBS-T) and 5% nonfat dry milk). The membranes were then incubated with specific primary antibodies. After washing three times with TBS-T buffer, the membrane was incubated with horseradish peroxidase-linked secondary antibody (Amersham Pharmacia Biotech, Piscataway, N.J.) at 1:5000 dilution for 1 hour at room temperature. The signals were visualized with the ECL+ detection system and autoradiography.

[8] = test system: Egr-1, CXCL1, and IL-1β expression; experiment: Validation of gene expression by quantitative RT-PCR and western blot; assay type: cell-based, human; settings: UM-SCC6; erlotinib 1.0 μM x 24 hrs pretreatment, 6 Gy
Method: as §2
To further validate the microarray findings, we performed quantitative real-time PCR (QPCR) using the SYBR green dye as previously described (Kleer, C. G., et al. (2003) Proc. Natl. Acad. Sci. USA 100(20):11606-11611). Briefly, 1 μg of total RNA isolated from each sample was reverse transcribed into first strand cDNA. Threshold levels were set for each experiment during the exponential phase of the PCR reaction using the SDS v 1.7 software (Applied Biosystems), and the quantity of DNA in each sample was calculated by interpolating its Ct value versus a standard curve of Ct values obtained from serially diluted cDNA from a mixture of all of the samples using Microsoft Excel. All standard curves had R2 values ≧0.99 over three orders of magnitude. The calculated quantity of the target gene for each sample was then divided by the average calculated quantity of the housekeeping genes glyceraldehyde-3 phosphate dehydrogenase (GAPD) and hydroxymethylbilane synthase (HMBS) corresponding to each sample to give a relative expression of the target gene for each sample. All oligonucleotide primers were synthesized by Integrated DNA Technologies. […]

[9] = test system: refractory NSCLC; settings: refractory NSCLC patients receiving erlotinib; cited from earlier work
[10] = test system: UM-SCC6 xenografts; experiment: Tumor growth in athymic nude mice, UM-SCC6 xenografts
Method: as §4, §5

[11] = test system: H226 cells; experiment: Radiation clonogenic survival, H226; assay type: cell-based, human; settings: erlotinib 0.1 μM for 3 days before irradiation, 6 and 9 Gy (p<0.05)
Method: as §3

[12] = test system: UM-SCC1 cells; experiment: PARP cleavage by western blot, UM-SCC1; assay type: cell-based, human
Method: as §2

[13] = test system: UM-SCC6 cells; experiment: PARP cleavage by western blot, UM-SCC6; assay type: cell-based, human; settings: erlotinib/radiation combination, data not shown
[14] = test system: HNSCC and NSCLC cell lines; experiment: Apoptosis by fluorescein labeled caspase inhibitor (caspase activity), cell lines pooled; assay type: cell-based, human; settings: erlotinib alone 1 μM x 48 hrs
Method: as §1

[15] = test system: H226 cells; experiment: Apoptosis by caspase activity, H226; assay type: cell-based, human; settings: erlotinib 1 μM combined with radiation 6 Gy
Method: as §1

[16] = erlotinib alone 0.8 mg daily oral gavage, 3 weeks
[17] = erlotinib combined with radiation (2 Gy twice per week), 55-day observation, p<0.05

Structure (SMILES): C#Cc1cccc(Nc2ncnc3cc(OCCOC)c(OCCOC)cc23)c1 [erlotinib, [6,7-bis(2-methoxyethoxy)-4-quinazolin-4-yl]-(3-ethynylphenyl) amine]
- radiosensitization (reduction in clonogenic survival) [1]: modest but consistent radiosensitization
- increase in apoptosis, combined treatment [2]: additive increase in apoptosis
- increase in apoptosis induction, combined treatment [3]: supra-additive increase in apoptosis induction
- tumor growth [4, 16]: modest inhibition of tumor growth
- tumor growth inhibition, nature of combination effect [4, 17]: synergistic
- S phase fraction ([5]; erlotinib (0.1 μM) combined with radiation (6 Gy)): further reduction in the S phase fraction
- cell cycle phase distribution, G1 ([5]; erlotinib alone (0.1 μM)): accumulation of cells in G1
- number of cells in S phase ([5]; erlotinib alone (0.1 μM)): reduced the number of cells in S phase
- number of proliferating cells (PCNA staining) ([6]; combined erlotinib/radiation): smallest
- number of proliferating cells (PCNA staining) ([6]; erlotinib alone): intermediate
- radiation-induced increase in Rad51 expression [7]: attenuated significantly
- radiation-induced enhancement of CXCL1 expression [8]: inhibited
- radiation-induced enhancement of Egr-1 expression [8]: inhibited
- radiation-induced enhancement of IL-1β expression [8]: inhibited
- survival [9]: survival extension
- tumor growth [10, 16]: modest inhibition of tumor growth
- tumor growth inhibition, nature of combination effect [10, 17]: additive
- radiosensitization (reduction in clonogenic survival) [11]: modest but consistent radiosensitization
- PARP cleavage ([12]; erlotinib 1 μM combined with radiation 6 Gy, UM-SCC1): Further increase in PARP cleavage
- PARP cleavage ([12]; erlotinib alone 1 μM, 10 and 24 hours following treatment): modest PARP cleavage
- enhancement in PARP cleavage [13]: even more pronounced
- increase in apoptosis as determined by caspase activity [14]: 10-25%
- increase in apoptosis, combined treatment [15]: additive increase in apoptosis
